Assay results reported in US8242275B2, “Bicyclic pyrazole compounds as antibacterial agents” (Janssen Pharmaceutica NV, priority 2005, dated 2012).
Converted amounts (≈) assume the structure as drawn. Where a name gives a salt, the structure may show the parent alone. Read-outs that look alike come from different tables or passages of the source.

Assays:
[1] = molecular target: T1, E. coli topoisomerase IV (Escherichia coli, UniProt P0AFI2+P20083); assay: Topoisomerase IV inhibition assay (relaxation); assay type: biochemical; settings: E. coli topoisomerase IV relaxation, visual inspection of gels; read-out: Topoisomerase IV IC50 (converted)
T1 construct: purchased John Innes Enterprises Ltd. (John Innes Centre, UK)
T1 sequence (P0AFI2 whole entry): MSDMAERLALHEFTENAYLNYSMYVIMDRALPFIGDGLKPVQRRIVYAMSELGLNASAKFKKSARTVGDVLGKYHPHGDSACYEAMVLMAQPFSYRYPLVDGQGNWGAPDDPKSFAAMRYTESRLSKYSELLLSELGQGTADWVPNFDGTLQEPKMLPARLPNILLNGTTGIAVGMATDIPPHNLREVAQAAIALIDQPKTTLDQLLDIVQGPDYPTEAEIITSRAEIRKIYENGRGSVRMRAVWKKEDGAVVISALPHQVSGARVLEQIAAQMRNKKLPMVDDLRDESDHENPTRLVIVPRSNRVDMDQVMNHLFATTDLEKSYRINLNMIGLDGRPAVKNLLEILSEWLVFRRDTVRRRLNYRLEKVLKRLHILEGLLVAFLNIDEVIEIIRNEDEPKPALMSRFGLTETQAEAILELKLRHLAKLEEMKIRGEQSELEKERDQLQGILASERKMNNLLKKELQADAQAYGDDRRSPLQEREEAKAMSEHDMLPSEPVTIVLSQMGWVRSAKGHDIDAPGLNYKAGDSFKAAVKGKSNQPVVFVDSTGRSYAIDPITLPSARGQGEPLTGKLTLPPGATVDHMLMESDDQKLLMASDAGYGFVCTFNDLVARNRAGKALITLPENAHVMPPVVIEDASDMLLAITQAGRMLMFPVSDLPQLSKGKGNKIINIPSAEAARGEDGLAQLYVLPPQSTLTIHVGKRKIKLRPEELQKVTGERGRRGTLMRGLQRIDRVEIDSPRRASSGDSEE
T1 sequence (P20083 whole entry): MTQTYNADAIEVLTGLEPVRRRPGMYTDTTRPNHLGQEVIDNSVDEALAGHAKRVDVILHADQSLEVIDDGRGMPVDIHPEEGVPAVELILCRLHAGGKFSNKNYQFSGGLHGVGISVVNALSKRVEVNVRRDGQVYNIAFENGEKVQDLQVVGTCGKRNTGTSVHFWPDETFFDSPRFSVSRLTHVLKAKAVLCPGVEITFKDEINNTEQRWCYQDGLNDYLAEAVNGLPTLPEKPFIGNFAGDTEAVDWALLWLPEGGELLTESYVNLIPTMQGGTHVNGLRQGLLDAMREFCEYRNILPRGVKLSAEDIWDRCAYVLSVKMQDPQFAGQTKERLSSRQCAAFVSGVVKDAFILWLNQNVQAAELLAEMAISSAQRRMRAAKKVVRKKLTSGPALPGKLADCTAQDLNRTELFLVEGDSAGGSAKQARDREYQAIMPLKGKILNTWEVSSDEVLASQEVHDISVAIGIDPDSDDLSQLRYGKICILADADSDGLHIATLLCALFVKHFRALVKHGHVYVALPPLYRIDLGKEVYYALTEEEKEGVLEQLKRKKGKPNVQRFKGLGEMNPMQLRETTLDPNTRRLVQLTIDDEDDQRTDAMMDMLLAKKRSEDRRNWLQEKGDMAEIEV
Procedure, shortened: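 Relaxation of 300 ng supercoiled pBR322 by 0.9 unit enzyme in HEPES-KOH pH 7.6 with potassium glutamate, Mg(OAc)2, DTT, tRNA, 2 mM ATP and BSA; final DMSO 0.5%. Reactions ran 45 min at 37° C. Products resolved on 1.0% agarose gels and stained with ethidium bromide.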

[2] = system: E. coli KL-16 (GSC strain 4245); assay: In vitro antibacterial activity (MIC assay), broth microdilution; assay type: cell-based; settings: Escherichia coli
Procedure, shortened: (§1)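 Broth microdilution per NCCLS M7-A5: 11-point 2-fold compound dilutions from DMSO stocks, inoculum about 5×10^5 CFU/mL, incubation 35° C for 16–24 h. MIC scored visually against no-compound growth controls, in μg/mL.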

[3] = system: S. aureus ATCC13709; assay: as above; assay type: cell-based
Procedure, shortened: as §1

[4] = system: S. pneumoniae ATCC49619; assay: as above; assay type: cell-based
Procedure, shortened: as §1

[5] = system: MSSA ATCC13709 (Smith); assay: Resistant strains assay (broth microdilution MIC); assay type: cell-based; settings: Staphylococcus aureus
Procedure: (§2) Compounds of the present invention were tested for activity against susceptible and resistant bacterial strains in vitro, and activity was compared to known anti-bacterial agents. Testing protocols followed NCCLS methodology for broth microdilution assays. MIC values in μg/mL are presented in Table 3 for the following strains: Column A: MSSA ATCC13709 (Smith); Column B: MSSA ATCC 29213; Column C: MRSA OC3726 (COL); Column D: MRSA OC2878.

[6] = system: MSSA ATCC 29213; assay: Resistant strains assay (broth microdilution MIC); assay type: cell-based; settings: Staphylococcus aureus, read-out: MIC, Column B
Procedure: as §2

[7] = molecular target: T2, E. coli DNA gyrase (Escherichia coli, UniProt P0AES4+P0AES6); assay: DNA gyrase inhibition assay (supercoiling); assay type: biochemical; settings: E. coli DNA gyrase supercoiling, visual inspection of gels; read-out: DNA Gyrase IC50 (converted)
T2 construct: purchased John Innes Enterprises Ltd. (John Innes Centre, UK)
T2 sequence (P0AES4 whole entry, one chain of several): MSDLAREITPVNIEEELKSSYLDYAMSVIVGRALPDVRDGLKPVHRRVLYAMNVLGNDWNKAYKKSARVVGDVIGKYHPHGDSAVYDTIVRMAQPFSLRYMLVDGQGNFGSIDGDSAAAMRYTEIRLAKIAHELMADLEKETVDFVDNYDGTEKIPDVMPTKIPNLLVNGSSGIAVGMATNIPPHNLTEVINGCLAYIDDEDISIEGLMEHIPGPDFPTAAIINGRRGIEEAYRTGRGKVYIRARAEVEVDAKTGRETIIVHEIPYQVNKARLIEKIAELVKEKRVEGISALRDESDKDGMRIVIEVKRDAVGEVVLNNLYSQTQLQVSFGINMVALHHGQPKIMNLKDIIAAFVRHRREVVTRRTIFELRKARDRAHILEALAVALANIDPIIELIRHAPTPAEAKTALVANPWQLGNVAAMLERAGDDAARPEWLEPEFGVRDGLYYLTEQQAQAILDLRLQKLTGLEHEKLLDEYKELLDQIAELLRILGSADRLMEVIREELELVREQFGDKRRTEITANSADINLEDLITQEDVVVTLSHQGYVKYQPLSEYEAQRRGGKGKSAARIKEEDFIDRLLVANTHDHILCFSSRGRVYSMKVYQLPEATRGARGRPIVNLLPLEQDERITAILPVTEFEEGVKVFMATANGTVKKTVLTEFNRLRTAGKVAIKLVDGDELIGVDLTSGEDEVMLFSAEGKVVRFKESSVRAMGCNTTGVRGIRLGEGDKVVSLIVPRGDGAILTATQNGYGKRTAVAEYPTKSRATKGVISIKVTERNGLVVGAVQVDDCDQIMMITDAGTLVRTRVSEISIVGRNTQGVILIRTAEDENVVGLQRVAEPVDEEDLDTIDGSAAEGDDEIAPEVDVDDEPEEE
Procedure, shortened: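 Relaxed pBR322 (250 ng) was supercoiled by 0.2 unit gyrase in Tris-HCl pH 7.5, KCl, MgCl2, DTT, spermidine, 1 mM ATP, glycerol, albumin, 0.5% DMSO final, 30 min at 37° C. Products were resolved on 1.0% agarose gels with ethidium bromide staining.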

[8] = system: CipR MRSA OC5273; assay: Resistant strains assay (broth microdilution MIC); assay type: cell-based; settings: Staphylococcus aureus, read-out: MIC, Column H
Excerpt: (§3) Testing protocols followed NCCLS methodology for broth microdilution assays.

[9] = system: CipR MRSA OC4222; assay: Resistant strains assay (broth microdilution MIC); assay type: cell-based; settings: Staphylococcus aureus, read-out: MIC, Column G
Excerpt: as §3

[10] = system: MRSA OC3726 (COL); assay: Resistant strains assay (broth microdilution MIC); assay type: cell-based; settings: Staphylococcus aureus; MRSA OC3726 (COL); read-out: MIC, Column C
Excerpt: as §3

[11] = system: CipR MRSA OC4159; assay: Resistant strains assay (broth microdilution MIC); assay type: cell-based; settings: Staphylococcus aureus, read-out: MIC, Column F
Excerpt: as §3

[12] = system: MRSA OC2878; assay: Resistant strains assay (broth microdilution MIC); assay type: cell-based; settings: Staphylococcus aureus; MRSA OC2878; read-out: MIC, Column D
Excerpt: as §3

[13] = system: CipR MRSA OC3946; assay: Resistant strains assay (broth microdilution MIC); assay type: cell-based; settings: Staphylococcus aureus, read-out: MIC, Column E
Procedure: as §2
MIC values in μg/mL are presented in Table 4 for the following strains: Column E: CipR MRSA OC3946; Column F: CipR MRSA OC4159; Column G: CipR MRSA OC4222; Column H: CipR MRSA OC5273.

[14] = system: E. coli ATCC25922; assay: In vitro antibacterial activity (MIC assay), broth microdilution; assay type: cell-based; settings: Escherichia coli
Procedure, shortened: as §1

[15] = Staphylococcus aureus, ATCC13709; read-out: S. aureus ATCC13709 MIC
[16] = Streptococcus pneumoniae, ATCC49619; read-out: S. pneumoniae ATCC49619 MIC
[17] = obtained with E. coli ATCC25922, read-out: E. coli MIC, data marked (*)

Compound | MIC [3, 15] [µg/mL] | MIC [4, 16] [µg/mL] | MIC ([9]; CipR MRSA OC4222) [µg/mL] | MIC [14, 17] [µg/mL] | other results
COc1ccc2nccc(-n3cc4c(n3)CCC(NC/C=C/c3ccccc3)C4)c2n1 (stereo not shown) [Example 46, [2-(6-Methoxy-[1,5]naphthyridin-4-yl)-4,5,6,7-tetrahydro-2H-indazol-5-yl]-(3-phenyl-allyl)-amine] | 0.06 (≈ 0.146 µM) | < 0.125 | 0.062 (≈ 0.151 µM) |  | IC50 [1]: < 36.5 nM; MIC [2]: 16 µg/mL (≈ 38.9 µM); MIC [5]: 0.062 µg/mL (≈ 0.151 µM); MIC [6]: 8 µg/mL (≈ 19.4 µM); IC50 [7]: 292 nM; MIC [8]: 0.125 µg/mL (≈ 0.304 µM); MIC [10]: 0.25 µg/mL (≈ 0.608 µM); MIC [11]: 0.062 µg/mL (≈ 0.151 µM); MIC [12]: 0.125 µg/mL (≈ 0.304 µM); MIC ([13]; CipR MRSA OC3946): 0.062 µg/mL (≈ 0.151 µM)
COc1ccc2nccc(-n3cc4c(n3)CCC(NCc3ccc5c(c3)OCCO5)C4)c2c1 (stereo not shown) [Example 50, (2,3-Dihydro-benzo[1,4]dioxin-6-ylmethyl)-[2-(6-methoxy-quinolin-4-yl)-4,5,6,7-tetrahydro-2H-indazol-5-yl]-amine] | 0.5 (≈ 1.13 µM) | 1 (≈ 2.26 µM) | 16 (≈ 36.2 µM) |  | IC50 [1]: 136 nM; MIC [2]: 128 µg/mL (≈ 289 µM); MIC [5]: 0.5 µg/mL (≈ 1.13 µM); MIC [6]: 16 µg/mL (≈ 36.2 µM); IC50 [7]: 4520 nM; MIC [8]: 1 µg/mL (≈ 2.26 µM); MIC [10]: 1 µg/mL (≈ 2.26 µM); MIC [11]: 16 µg/mL (≈ 36.2 µM); MIC [12]: 0.5 µg/mL (≈ 1.13 µM); MIC ([13]; CipR MRSA OC3946): 0.5 µg/mL (≈ 1.13 µM)
COc1ccc2nccc(-n3cc4c(n3)CCC(NCc3ccc5c(c3)NC(=O)CS5)C4)c2c1 (stereo not shown) [Example 52, 6-{[2-(6-Methoxy-quinolin-4-yl)-4,5,6,7-tetrahydro-2H-indazol-5-ylamino]-methyl}-4H-benzo[1,4]thiazin-3-one] | 0.25 (≈ 0.53 µM) | 1 (≈ 2.12 µM) |  |  | IC50 [1]: 63.6 nM; MIC [2]: 2 µg/mL (≈ 4.24 µM); MIC [5]: 0.25 µg/mL (≈ 0.53 µM); MIC [6]: 1 µg/mL (≈ 2.12 µM); IC50 [7]: 265 nM; MIC [8]: 0.5 µg/mL (≈ 1.06 µM); MIC ([9]; MRSA): 0.125 µg/mL (≈ 0.265 µM); MIC [10]: 0.5 µg/mL (≈ 1.06 µM); MIC [11]: 0.25 µg/mL (≈ 0.53 µM); MIC [12]: 0.5 µg/mL (≈ 1.06 µM); MIC ([13]; MRSA): 0.125 µg/mL (≈ 0.265 µM)
COc1ccc2nccc(-n3cc4c(n3)CCC(NCc3cc5c(cc3F)SCCN5)C4)c2n1 (stereo not shown) [Example 107, (7-Fluoro-3,4-dihydro-2H-benzo[1,4]thiazin-6-ylmethyl)-[2-(6-methoxy-[1,5]naphthyridin-4-yl)-4,5,6,7-tetrahydro-2H-indazol-5-yl]-amine] | 0.25 (≈ 0.525 µM) | 2 (≈ 4.2 µM) | 0.5 (≈ 1.05 µM) | 8 (≈ 16.8 µM) | 
COc1ccc2nccc(-n3cc4c(n3)CCC(NC(=O)c3ccc5c(c3)NC(=O)C(C)(C)S5)C4)c2c1 (stereo not shown) [Example 129, 2,2-Dimethyl-3-oxo-3,4-dihydro-2H-benzo[1,4]thiazine-6-carboxylic acid [2-(6-methoxy-quinolin-4-yl)-4,5,6,7-tetrahydro-2H-indazol-5-yl]-amide] | 1 (≈ 1.95 µM) | 4 (≈ 7.79 µM) | 1 (≈ 1.95 µM) | > 16 | 
COc1ccc2nccc(-n3cc4c(n3)CCC(NC(=O)c3cc5c(cc3OC)SCC(=O)N5)C4)c2n1 (stereo not shown) [Example 130, 7-Methoxy-3-oxo-3,4-dihydro-2H-benzo[1,4]thiazine-6-carboxylic acid [2-(6-methoxy-[1,5]naphthyridin-4-yl)-4,5,6,7-tetrahydro-2H-indazol-5-yl]-amide] | 2 (≈ 3.87 µM) | 16 (≈ 31 µM) | 2 (≈ 3.87 µM) | > 16 | 
COc1ccc2nccc(-n3ncc4c3CCC(NC(=O)c3cc5c(cc3C)SCC(=O)N5)C4)c2c1 (stereo not shown) [Example 132, 7-Methyl-3-oxo-3,4-dihydro-2H-benzo[1,4]thiazine-6-carboxylic acid [1-(6-methoxy-quinolin-4-yl)-4,5,6,7-tetrahydro-1H-indazol-5-yl]-amide] | 2 (≈ 4 µM) | > 16 | 2 (≈ 4 µM) | > 16 | 
COc1ccc2nccc(-n3cc4c(n3)CCC(NC(=O)c3cc5c(cc3C)SCC(=O)N5)C4)c2n1 (stereo not shown) [Example 133, 7-Methyl-3-oxo-3,4-dihydro-2H-benzo[1,4]thiazine-6-carboxylic acid [2-(6-methoxy-[1,5]naphthyridin-4-yl)-4,5,6,7-tetrahydro-2H-indazol-5-yl]-amide] | 0.25 (≈ 0.499 µM) | > 16 | 0.25 (≈ 0.499 µM) | > 16 | 
COc1ccc2nccc(-n3cc4c(n3)CCC(NCCOc3cc(F)cc(F)c3)C4)c2n1 (stereo not shown) [Example 134, [2-(3,5-Difluoro-phenoxy)-ethyl]-[2-(6-methoxy-[1,5]naphthyridin-4-yl)-4,5,6,7-tetrahydro-2H-indazol-5-yl]-amine] | 1 (≈ 2.21 µM) | 4 (≈ 8.86 µM) | 0.5 (≈ 1.11 µM) | > 16 | 
CCOC(=O)c1cc2c(cc1C(=O)NC1CCc3nn(-c4ccnc5ccc(OC)cc45)cc3C1)NC(=O)CS2 (stereo not shown) [Example 135, 6-[2-(6-Methoxy-quinolin-4-yl)-4,5,6,7-tetrahydro-2H-indazol-5-ylcarbamoyl]-3-oxo-3,4-dihydro-2H-benzo[1,4]thiazine-7-carboxylic acid ethyl ester] | 2 (≈ 3.59 µM) | > 16 | 2 (≈ 3.59 µM) | > 16 | 
COc1ccc2nccc(-n3cc4c(n3)CCC(NC(=O)c3cc5c(cc3C(=O)O)SCC(=O)N5)C4)c2c1 (stereo not shown) [Example 136, 6-[2-(6-Methoxy-quinolin-4-yl)-4,5,6,7-tetrahydro-2H-indazol-5-ylcarbamoyl]-3-oxo-3,4-dihydro-2H-benzo[1,4]thiazine-7-carboxylic acid, potassium salt] |  |  |  |  | MIC ([14]; ATCC25922, read-out: E. coli MIC, data marked (*)): > 16 µg/mL; MIC ([3]; Staphylococcus aureus, ATCC13709, read-out: S. aureus ATCC13709 MIC): 1 µg/mL; MIC ([4]; Streptococcus pneumoniae, ATCC49619, read-out: S. pneumoniae ATCC49619 MIC): > 16 µg/mL; MIC ([9]; MRSA): 2 µg/mL
CCOC(=O)c1cc2c(cc1C(=O)NC1CCc3nn(-c4ccnc5ccc(OC)nc45)cc3C1)NC(=O)CS2 (stereo not shown) [Example 137, 6-[2-(6-Methoxy-[1,5]naphthyridin-4-yl)-4,5,6,7-tetrahydro-2H-indazol-5-ylcarbamoyl]-3-oxo-3,4-dihydro-2H-benzo[1,4]thiazine-7-carboxylic acid ethyl ester] | 0.5 (≈ 0.895 µM) | > 16 | 0.5 (≈ 0.895 µM) | > 16 | 
COc1ccc2nccc(-n3cc4c(n3)CCC(NC(=O)c3cc5c(cc3C(=O)O)SCC(=O)N5)C4)c2n1 (stereo not shown) [Example 138, 6-[2-(6-Methoxy-[1,5]naphthyridin-4-yl)-4,5,6,7-tetrahydro-2H-indazol-5-ylcarbamoyl]-3-oxo-3,4-dihydro-2H-benzo[1,4]thiazine-7-carboxylic acid] | 0.5 (≈ 0.942 µM) | 16 (≈ 30.2 µM) | 0.5 (≈ 0.942 µM) | > 16 | 
